Source: patent US10670605B2, “Cysteine reactive probes and uses thereof” (The Scripps Research Institute, priority 2015, dated 2020)
Each block holds one compound with its values, some of them ahead of it.

How the values were obtained:
Experiment in all cases: Competitive isoTOP-ABPP, cell lysates;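 for isoTOP-ABPP reactivity profile ratio, Q15084 C190: Heavy/light ratio DMSO over fragment-treated so higher means more cysteine engagement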;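 for isoTOP-ABPP reactivity profile ratio, Q99873 C109: Heavy/light ratio DMSO over fragment-treated so higher means more cysteine engagement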
Type in all cases: binding
ACAT1 C126 (P24752) = target: T1, ACAT1 C126 (P24752) (Homo sapiens, UniProt P24752); conditions: for isoTOP-ABPP reactivity ratio, P24752_C126 / isoTOP-ABPP reactivity profile ratio, P24752_C126: 500 μm, in-vitro_ramos
T1 sequence (P24752 34-427): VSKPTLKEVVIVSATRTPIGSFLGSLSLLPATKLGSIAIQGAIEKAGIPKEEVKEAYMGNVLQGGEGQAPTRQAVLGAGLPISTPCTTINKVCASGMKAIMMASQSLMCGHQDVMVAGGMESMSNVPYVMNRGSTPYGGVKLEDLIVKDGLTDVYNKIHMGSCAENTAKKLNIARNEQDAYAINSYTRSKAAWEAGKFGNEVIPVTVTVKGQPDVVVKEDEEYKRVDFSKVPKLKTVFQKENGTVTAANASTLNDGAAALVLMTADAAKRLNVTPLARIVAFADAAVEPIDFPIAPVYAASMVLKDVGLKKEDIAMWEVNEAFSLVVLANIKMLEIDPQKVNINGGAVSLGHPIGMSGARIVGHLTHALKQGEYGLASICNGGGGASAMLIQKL

ACAT1 C119 (P24752) = target: T2, ACAT1 C119 (P24752) (Homo sapiens, UniProt P24752); conditions: for isoTOP-ABPP reactivity ratio, P24752_C119 / isoTOP-ABPP reactivity profile ratio, P24752_C119: 500 μm
T2 sequence (P24752 34-427): T1 sequence (P24752 34-427)

PRMT1 C109 (Q99873) = PRMT1 C109 (Q99873) (Homo sapiens, UniProt Q99873); conditions: for isoTOP-ABPP reactivity ratio, Q99873_C109 / isoTOP-ABPP reactivity profile ratio, Q99873_C109: 500 μm;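 for isoTOP-ABPP reactivity profile ratio, Q99873 C109: Heavy/light ratio DMSO over fragment-treated so higher means more cysteine engagement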
ADA C75 (P00813) = target: T3, ADA C75 (P00813) (Homo sapiens, UniProt P00813); conditions: 500 μm, in-vitro_ramos
T3 sequence (P00813 1-363): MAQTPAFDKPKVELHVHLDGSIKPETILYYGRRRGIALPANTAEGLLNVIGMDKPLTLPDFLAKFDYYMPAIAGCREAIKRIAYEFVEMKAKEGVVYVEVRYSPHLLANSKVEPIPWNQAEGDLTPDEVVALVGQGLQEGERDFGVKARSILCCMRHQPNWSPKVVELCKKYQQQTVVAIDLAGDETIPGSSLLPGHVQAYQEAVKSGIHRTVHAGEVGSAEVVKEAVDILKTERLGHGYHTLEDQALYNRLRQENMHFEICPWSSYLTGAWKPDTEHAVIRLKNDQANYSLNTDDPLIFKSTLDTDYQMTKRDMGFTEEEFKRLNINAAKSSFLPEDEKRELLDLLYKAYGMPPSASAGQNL

PDIA6 C190 (Q15084) = target: T4, PDIA6 C190 (Q15084) (Homo sapiens, UniProt Q15084);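 for isoTOP-ABPP reactivity profile ratio, Q15084 C190: Heavy/light ratio DMSO over fragment-treated so higher means more cysteine engagement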
T4 sequence (Q15084 20-440): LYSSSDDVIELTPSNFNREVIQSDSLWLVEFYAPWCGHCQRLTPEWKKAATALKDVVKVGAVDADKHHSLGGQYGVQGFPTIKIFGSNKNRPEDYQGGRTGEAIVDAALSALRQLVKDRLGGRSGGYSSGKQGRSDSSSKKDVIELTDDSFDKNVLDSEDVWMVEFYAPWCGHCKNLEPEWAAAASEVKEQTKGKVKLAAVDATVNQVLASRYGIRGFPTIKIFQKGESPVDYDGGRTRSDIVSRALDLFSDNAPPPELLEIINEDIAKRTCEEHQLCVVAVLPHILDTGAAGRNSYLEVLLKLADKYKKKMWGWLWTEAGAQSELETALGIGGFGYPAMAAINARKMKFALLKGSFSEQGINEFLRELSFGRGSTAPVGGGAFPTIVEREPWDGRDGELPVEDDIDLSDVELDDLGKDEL

XPO1 C34 (O14980) = XPO1 C34 (O14980) (Homo sapiens, UniProt O14980); conditions: for isoTOP-ABPP reactivity ratio, O14980_C34 / isoTOP-ABPP reactivity profile ratio, O14980_C34: 500 μm
DCUN1D1 C115 (Q96GG9) = DCUN1D1 C115 (Q96GG9) (Homo sapiens, UniProt Q96GG9)
SMARCC2 C145 (Q8TAQ2) = SMARCC2 C145 (Q8TAQ2) (Homo sapiens, UniProt Q8TAQ2)
XPO1 C528 (O14980) = XPO1 C528 (O14980) (Homo sapiens, UniProt O14980); conditions: 500 μm
Chain of XPO1 C528 (O14980) (O14980 whole entry): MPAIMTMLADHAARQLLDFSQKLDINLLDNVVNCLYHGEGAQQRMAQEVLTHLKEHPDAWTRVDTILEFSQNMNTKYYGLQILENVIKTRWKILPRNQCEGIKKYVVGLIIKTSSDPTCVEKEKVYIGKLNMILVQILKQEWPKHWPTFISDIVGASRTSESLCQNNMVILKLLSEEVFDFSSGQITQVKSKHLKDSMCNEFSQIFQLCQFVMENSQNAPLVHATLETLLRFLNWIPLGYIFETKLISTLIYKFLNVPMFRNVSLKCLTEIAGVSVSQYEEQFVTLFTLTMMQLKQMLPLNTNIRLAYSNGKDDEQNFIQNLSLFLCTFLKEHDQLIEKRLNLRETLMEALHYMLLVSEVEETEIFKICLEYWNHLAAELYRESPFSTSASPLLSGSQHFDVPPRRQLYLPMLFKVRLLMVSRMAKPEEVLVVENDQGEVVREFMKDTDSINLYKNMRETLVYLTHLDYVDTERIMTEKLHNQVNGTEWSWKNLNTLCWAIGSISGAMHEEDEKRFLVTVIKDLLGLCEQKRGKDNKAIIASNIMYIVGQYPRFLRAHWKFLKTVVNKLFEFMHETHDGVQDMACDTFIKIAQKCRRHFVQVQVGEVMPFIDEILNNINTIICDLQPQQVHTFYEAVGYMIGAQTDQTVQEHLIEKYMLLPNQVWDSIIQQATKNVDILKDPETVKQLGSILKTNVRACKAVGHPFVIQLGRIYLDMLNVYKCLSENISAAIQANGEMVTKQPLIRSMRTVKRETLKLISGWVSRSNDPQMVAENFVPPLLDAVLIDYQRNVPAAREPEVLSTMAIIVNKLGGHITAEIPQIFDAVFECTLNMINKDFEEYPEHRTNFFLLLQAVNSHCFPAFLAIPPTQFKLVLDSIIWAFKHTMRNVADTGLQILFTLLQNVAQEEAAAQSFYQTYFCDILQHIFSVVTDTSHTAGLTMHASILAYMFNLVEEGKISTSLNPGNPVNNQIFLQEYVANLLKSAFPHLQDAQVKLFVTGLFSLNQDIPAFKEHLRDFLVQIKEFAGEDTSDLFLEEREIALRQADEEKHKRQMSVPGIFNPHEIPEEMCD

Chain of XPO1 C34 (O14980) (O14980 whole entry): as above
Chain of SMARCC2 C145 (Q8TAQ2) (Q8TAQ2 whole entry): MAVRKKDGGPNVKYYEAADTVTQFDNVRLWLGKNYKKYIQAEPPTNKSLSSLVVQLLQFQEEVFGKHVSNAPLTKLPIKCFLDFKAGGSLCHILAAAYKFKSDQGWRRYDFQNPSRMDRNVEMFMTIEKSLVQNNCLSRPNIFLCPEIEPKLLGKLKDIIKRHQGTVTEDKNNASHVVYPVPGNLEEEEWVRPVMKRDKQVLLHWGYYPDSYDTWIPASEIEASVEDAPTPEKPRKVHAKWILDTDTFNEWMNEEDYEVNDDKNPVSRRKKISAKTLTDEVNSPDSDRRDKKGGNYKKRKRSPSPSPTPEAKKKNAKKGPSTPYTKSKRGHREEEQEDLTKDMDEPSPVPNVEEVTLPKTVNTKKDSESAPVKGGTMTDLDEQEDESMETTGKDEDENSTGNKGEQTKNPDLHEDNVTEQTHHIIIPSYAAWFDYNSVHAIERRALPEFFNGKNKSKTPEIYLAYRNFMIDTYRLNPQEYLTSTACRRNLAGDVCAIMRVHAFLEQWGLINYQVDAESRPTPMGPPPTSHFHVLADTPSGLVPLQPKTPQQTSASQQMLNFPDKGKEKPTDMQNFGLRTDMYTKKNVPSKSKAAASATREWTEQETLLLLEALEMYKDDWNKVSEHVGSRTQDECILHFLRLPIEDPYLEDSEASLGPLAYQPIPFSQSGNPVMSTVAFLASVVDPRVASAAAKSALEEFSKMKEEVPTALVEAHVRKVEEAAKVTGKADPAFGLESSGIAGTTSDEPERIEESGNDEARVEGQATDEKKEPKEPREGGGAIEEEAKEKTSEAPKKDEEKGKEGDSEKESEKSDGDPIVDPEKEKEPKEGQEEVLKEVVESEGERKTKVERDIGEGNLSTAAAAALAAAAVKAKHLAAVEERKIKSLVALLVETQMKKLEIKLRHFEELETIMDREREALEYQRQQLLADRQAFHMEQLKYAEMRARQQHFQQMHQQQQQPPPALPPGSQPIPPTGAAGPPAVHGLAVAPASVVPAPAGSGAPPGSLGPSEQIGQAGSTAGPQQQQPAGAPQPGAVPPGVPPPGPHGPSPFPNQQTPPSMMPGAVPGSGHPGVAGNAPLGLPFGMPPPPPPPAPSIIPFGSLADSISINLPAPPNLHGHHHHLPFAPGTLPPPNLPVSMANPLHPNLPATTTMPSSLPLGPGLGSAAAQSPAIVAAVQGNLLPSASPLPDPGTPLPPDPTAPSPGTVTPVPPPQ
Chain of DCUN1D1 C115 (Q96GG9) (Q96GG9 whole entry): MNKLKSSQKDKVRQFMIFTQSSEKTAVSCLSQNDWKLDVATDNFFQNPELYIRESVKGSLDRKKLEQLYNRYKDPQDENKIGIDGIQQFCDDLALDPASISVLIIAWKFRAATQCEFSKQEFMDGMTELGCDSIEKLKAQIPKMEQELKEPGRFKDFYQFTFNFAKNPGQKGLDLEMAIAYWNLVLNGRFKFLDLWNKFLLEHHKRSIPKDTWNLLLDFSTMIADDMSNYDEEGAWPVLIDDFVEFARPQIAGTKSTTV
Chain of PRMT1 C109 (Q99873) (Q99873 whole entry, the tested form may be a part): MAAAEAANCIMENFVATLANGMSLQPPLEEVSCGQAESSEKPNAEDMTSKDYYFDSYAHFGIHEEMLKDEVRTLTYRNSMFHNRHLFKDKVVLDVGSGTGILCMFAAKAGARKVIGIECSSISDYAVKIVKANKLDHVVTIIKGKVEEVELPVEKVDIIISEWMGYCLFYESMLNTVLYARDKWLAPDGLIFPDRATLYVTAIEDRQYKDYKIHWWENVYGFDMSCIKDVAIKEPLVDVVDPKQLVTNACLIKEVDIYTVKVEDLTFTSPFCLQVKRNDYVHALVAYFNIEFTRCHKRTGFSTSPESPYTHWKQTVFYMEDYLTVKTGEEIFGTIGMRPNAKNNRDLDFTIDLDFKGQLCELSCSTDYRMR

isoTOP-ABPP ratio (reactivity profile), P24752_C126 (ACAT1 C126 (P24752); 500 μm in-vitro ramos): 1.1
isoTOP-ABPP reactivity ratio, P24752_C126 (ACAT1 C126 (P24752)): 1.6
isoTOP-ABPP ratio (reactivity profile), P24752_C119 (ACAT1 C119 (P24752); 500 μm in-vitro ramos): 0.7
isoTOP-ABPP reactivity ratio, P24752_C119 (ACAT1 C119 (P24752); in-vitro_ramos): 0.9
isoTOP-ABPP ratio (reactivity profile), Q99873_C109 (PRMT1 C109 (Q99873); 500 μm in-vitro ramos): 1.1
isoTOP-ABPP reactivity ratio, Q99873_C109 (PRMT1 C109 (Q99873); in-vitro_ramos): 1.8
isoTOP-ABPP reactivity ratio, P00813_C75 (ADA C75 (P00813)): 3.1
isoTOP-ABPP ratio (reactivity profile), Q15084_C190 (PDIA6 C190 (Q15084); 500 μm in-vitro ramos): 2.3
isoTOP-ABPP ratio (reactivity profile), O14980_C34 (XPO1 C34 (O14980); 500 μm in-vitro ramos): 0.7
isoTOP-ABPP reactivity ratio, O14980_C34 (XPO1 C34 (O14980); in-vitro_ramos): 1.1
isoTOP-ABPP ratio (reactivity profile), Q96GG9_C115 (DCUN1D1 C115 (Q96GG9); 500 μm in-vitro ramos): 0.7
isoTOP-ABPP reactivity ratio, Q96GG9_C115 (DCUN1D1 C115 (Q96GG9); 500 μm, in-vitro_ramos): 1.1
isoTOP-ABPP ratio (reactivity profile), Q8TAQ2_C145 (SMARCC2 C145 (Q8TAQ2); 500 μm in-vitro ramos): 1.1
isoTOP-ABPP reactivity ratio, Q8TAQ2_C145 (SMARCC2 C145 (Q8TAQ2); 500 μm, in-vitro_ramos): 1.5
Structure (SMILES): CCN(CC)c1ccc(S(N)(=O)=O)cc1NC(=O)CCl [compound 30]

isoTOP-ABPP reactivity ratio, P24752_C126 (ACAT1 C126 (P24752)): 1.1
isoTOP-ABPP reactivity ratio, P24752_C119 (ACAT1 C119 (P24752); in-vitro_ramos_231): 0.8
isoTOP-ABPP reactivity ratio, Q99873_C109 (PRMT1 C109 (Q99873); in-vitro_ramos): 1.1
isoTOP-ABPP reactivity ratio, Q99873_C109 (PRMT1 C109 (Q99873); in-vitro_ramos_231): 0.8
isoTOP-ABPP reactivity ratio, P00813_C75 (ADA C75 (P00813)): 1.1
isoTOP-ABPP reactivity ratio, Q15084_C190 (PDIA6 C190 (Q15084); 500 μm, in-vitro_ramos_231): 0.9
isoTOP-ABPP reactivity ratio, O14980_C34 (XPO1 C34 (O14980); in-vitro_ramos): 1.1
isoTOP-ABPP reactivity ratio, O14980_C34 (XPO1 C34 (O14980); in-vitro_ramos_231): 0.8
isoTOP-ABPP reactivity ratio, O14980_C528 (XPO1 C528 (O14980); in-vitro_ramos): 1.1
Structure (SMILES): O=C(CCl)N(Cc1ccc(F)cc1)C12CC3CC(CC(C3)C1)C2 [compound 34]

isoTOP-ABPP reactivity profile ratio, P24752_C126 (ACAT1 C126 (P24752)): 0.8
isoTOP-ABPP reactivity profile ratio, P24752_C119 (ACAT1 C119 (P24752); in-vitro_ramos): 0.8
isoTOP-ABPP reactivity profile ratio, Q99873_C109 (PRMT1 C109 (Q99873); in-vitro_ramos): 0.9
isoTOP-ABPP reactivity profile ratio, P00813_C75 (ADA C75 (P00813)): 0.8
isoTOP-ABPP reactivity profile ratio, O14980_C34 (XPO1 C34 (O14980); in-vitro_ramos): 0.9
isoTOP-ABPP reactivity profile ratio, Q96GG9_C115 (DCUN1D1 C115 (Q96GG9); 500 μm, in-vitro_ramos): 0.9
isoTOP-ABPP reactivity profile ratio, Q8TAQ2_C145 (SMARCC2 C145 (Q8TAQ2); 500 μm, in-vitro_ramos): 1.0
Structure (SMILES): N#CC(=Cc1ccc(-c2ccccc2Cl)o1)C(N)=O [compound 42]

isoTOP-ABPP reactivity profile ratio, P24752_C126 (ACAT1 C126 (P24752)): 20.0
isoTOP-ABPP reactivity profile ratio, P24752_C119 (ACAT1 C119 (P24752); in-vitro_ramos): 1.1
isoTOP-ABPP reactivity profile ratio, P24752_C119 (ACAT1 C119 (P24752); in-vitro_ramos_231): 1.8
isoTOP-ABPP reactivity profile ratio, Q99873_C109 (PRMT1 C109 (Q99873); in-vitro_ramos): 1.2
isoTOP-ABPP reactivity profile ratio, Q99873_C109 (PRMT1 C109 (Q99873); in-vitro_ramos_231): 1.4
isoTOP-ABPP reactivity profile ratio, P00813_C75 (ADA C75 (P00813)): 1.2
isoTOP-ABPP reactivity profile ratio, Q15084_C190 (PDIA6 C190 (Q15084); 500 μm, in-vitro_ramos_231): 20.0
isoTOP-ABPP reactivity profile ratio, O14980_C34 (XPO1 C34 (O14980); in-vitro_ramos_231): 1.1
isoTOP-ABPP reactivity profile ratio, Q8TAQ2_C145 (SMARCC2 C145 (Q8TAQ2); 500 μm, in-vitro_ramos_231): 20.0
isoTOP-ABPP reactivity profile ratio, O14980_C528 (XPO1 C528 (O14980); in-vitro_ramos_231): 4.6
Structure (SMILES): COc1cc(NC(=O)CCl)cc(OC)c1 [compound 43]
